{"source": "patent US11746343B2", "about": "“Wheat plants having increased resistance to imidazolinone herbicides” (Northwest Plant Breeding Company, priority 2001, dated 2023)", "key": {"[1]": {"system": "HRS 198205 (AP205CL) wheat plants", "assay": "field plots and seed increases sprayed with imazamox, HRS 198205 / AP205CL", "assay_type": "in vivo, Triticum aestivum", "protocol": "(§1) Progeny seed of HRS 198205 and HRS198208 were collected and planted in the field. Field plots were sprayed with imazamox herbicide at 80 g. a.i./ha.+1.0% Sun-It adjuvant (v/v). […] Additionally, seed harvested from plots of five of the HRS198208 sub-lines were combined into a single lot that was designated AP602CL (referred to above as Gunner IMI 208). Seed increases were conducted at several locations. All seed increases were sprayed with imazamox herbicide at 40 g. a.i./ha+0.25% (v/v) non-ionic surfactant."}, "[2]": {"system": "HRS198208 (AP602CL) wheat plants", "assay": "field plots and seed increases sprayed with imazamox, HRS198208 / AP602CL", "assay_type": "in vivo, Triticum aestivum", "protocol": "as §1"}, "[3]": {"system": "AHAS extracted from Madsen1", "assay": "in vitro AHAS activity, Madsen1 compared to wild type Madsen", "assay_type": "biochemical, Triticum aestivum", "source_text": "Because the tolerance in Madsen1 is due to a mutation in the AHAS enzyme rendering it resistant to inhibition by imidazolinone herbicides, the in vitro activity of AHAS extracted from wild type plants (not having the mutation for tolerance) can be compared to the in vitro activity of AHAS extracted from tolerant plants in the presence of varying concentrations of an imidazolinone (IMI) herbicide. Madsen1 was compared to the wild type variety Madsen."}, "[4]": {"system": "Madsen1 wheat plants", "assay": "greenhouse trial of tolerance of Madsen1 to imazamox", "assay_type": "in vivo, Triticum aestivum", "settings": "40 and 80 g/ha, 14 days after treatment, control Teal", "protocol": "Madsen1 was evaluated for tolerance to the imidazolinone herbicide imazamox at 40 and 80 g/ha in a greenhouse trial. The susceptible wheat cultivar Teal was used as a control. Evaluation was made 14 days after treatment. Injury was scored on a 0-9 scale, 0 representing no injury and 9 representing plant death."}, "[5]": {"system": "AHAS enzyme extracted from herbicide tolerant AP205CL plants", "assay": "in vitro AHAS enzyme activity, enzyme extracted from AP205CL plants", "assay_type": "biochemical, Triticum aestivum", "source_text": "(§2) Both the AP205CL and AP602CL wheat plants are tolerant to imidazolinone herbicides due to a mutation of the AHAS enzyme that is resistant to inhibition by these herbicides in vitro. […] The values in FIG. 1 are expressed as a percent of uninhibited activity. […] This activity continues to decline to nearly 100 percent inhibition of the enzyme at higher herbicide concentrations ([…]). In contrast, the AHAS enzyme extracted from herbicide tolerant AP205CL plants retains nearly 90 percent of its activity at the […] imazamox concentration, and approximately one third of its activity at the higher (50 µM to 100 µM) concentrations. The AHAS enzyme extracted from herbicide tolerant AP602CL plants retains nearly 80-100 percent of its activity at the […] imazamox concentration, and nearly half of its activity at the higher ([…]) concentrations. These levels of activity are sufficient to allow the tolerant wheat plants to survive the application of imazamox, as was observed during the selection process (Example 1).\n(§3) AHAS is known to be feedback inhibited by the branched chain amino acids. Valine and leucine in combination are especially effective inhibitors."}, "[6]": {"system": "AHAS enzyme extracted from herbicide tolerant AP602CL plants", "assay": "in vitro AHAS enzyme activity, enzyme extracted from AP602CL plants", "assay_type": "biochemical, Triticum aestivum", "source_text": "as §2, §3"}, "[7]": {"system": "AHAS enzyme from wild type Gunner wheat", "assay": "in vitro AHAS enzyme activity, enzyme extracted from wild type wheat", "assay_type": "biochemical, Triticum aestivum", "parameters": "unit of the concentration uncertain", "source_text": "as §2, §3"}, "[8]": {"system": "Madsen1 wheat line", "assay": "selection of tolerant Madsen line (M2 field, M3 greenhouse)", "assay_type": "in vivo, Triticum aestivum", "protocol": "Seeds of the soft white winter wheat variety Madsen, were pre-soaked in tap water. After decanting the tap water, a solution of 0.03% EMS and 0.02% DES was poured into the seed container. The container was shaken every 10-15 minutes during the course of a two-hour treatment. The EMS and DES solution was decanted and a solution of 0.02% sodium azide in 0.001 M phosphate buffer was added. The container again was shaken every 10-15 minutes during the course of a two-hour treatment. Seeds were then rinsed in tap water and dried. After drying, seeds were planted. Planted seeds represented the M1 generation. M1 plants were allowed to self-pollinate and the M2 seed harvested as a bulk. Approximately 0.2 hectares of M2 seed were planted in the field and resultant plants treated with an imazamox rate of 40 g. ai/ha. Twelve M2 plants were identified as tolerant. These plants were dug, and sent to Pullman, Wash. for vernalization and M3 seed production. M3 seed from each of the M2 plants were planted in the greenhouse and resultant plants were vernalized for 8 weeks, then treated with 80 g. ai/ha of Imazamox. Plants were selected based upon observed levels of tolerance and repotted for seed production. The M2:3 line designated Madsen1 selected as tolerant to 40 g/ha imazamox as an M2 was confirmed as tolerant to imazamox at the 80 g/ha rate applied to M3 progeny."}}, "data": [{"smiles": "COCc1cnc(C2=NC(C)(C(C)C)C(=O)N2)c(C(=O)O)c1", "note": "(stereo not drawn) [imazamox]", "values": [{"measurement": "herbicide susceptible plants in seed increases", "setting": "[1]; 40 g. a.i./ha + 0.25% (v/v) non-ionic surfactant, AP205CL", "result": "No herbicide susceptible plants were observed"}, {"measurement": "tolerance in field plots", "setting": "[1]; 80 g. a.i./ha + 1.0% Sun-It adjuvant (v/v), HRS 198205", "result": "same level of acceptable tolerance"}, {"measurement": "herbicide susceptible plants in seed increases", "setting": "[2]; 40 g. a.i./ha + 0.25% (v/v) non-ionic surfactant, AP602CL", "result": "No herbicide susceptible plants were observed"}, {"measurement": "tolerance in field plots", "setting": "[2]; 80 g. a.i./ha + 1.0% Sun-It adjuvant (v/v), HRS198208", "result": "same level of acceptable tolerance"}, {"measurement": "residual uninhibited AHAS", "setting": "[3]; 100 μM imazamox, Madsen1", "result": "sufficient to provide a herbicide tolerant response"}, {"measurement": "uninhibited AHAS enzyme activity as imazamox concentration increased", "setting": "[3]; Madsen1 compared to wild type Madsen", "result": "decreased faster in wild type lines than in Madsen)"}, {"measurement": "tolerance (injury scored on a 0-9 scale)", "setting": "[4]", "result": "has tolerance"}, {"measurement": "AHAS activity retained", "setting": "[5]; 1 M imazamox", "result": "~90", "unit": "%"}, {"measurement": "AHAS activity retained (fraction of its activity)", "setting": "[5]; higher (50 M to 100 µM) imazamox concentrations", "result": "approximately one third"}, {"measurement": "AHAS activity retained", "setting": "[6]; 1 M imazamox", "result": "80-100%"}, {"measurement": "AHAS activity retained (fraction of its activity)", "setting": "[6]; higher (50 µM to 100 µM) imazamox concentrations", "result": "half"}, {"measurement": "inhibition of the AHAS enzyme", "setting": "[7]; higher herbicide concentrations (100 (unit uncertain))", "result": "~100", "unit": "%"}, {"measurement": "reduction of AHAS activity", "setting": "[7]; low concentration (1 (unit uncertain)) of imazamox", "result": "1 to 35", "unit": "%"}, {"measurement": "tolerance of M2 plants", "setting": "[8]; 40 g/ha imazamox, field, M2", "result": "tolerant"}, {"measurement": "tolerance of M3 progeny", "setting": "[8]; 80 g/ha imazamox, greenhouse, M3 progeny", "result": "tolerant"}]}]}
